Data as given in patent publication US20120028278A1, “CELL LINES EXPRESSING GUANYLATE CYCLASE-C AND METHODS OF USING THEM” (CHROMOCELL CORPORATION, priority 2009, published 2012).
Where a SMILES comes first, the peptide text is derived from it. Bridges are numbered along the chain shown (N, C = ends).

Columns and labels:
[1] = target: T1, human GC-C (Homo sapiens, UniProt P25092, F281L); assay: competitive ELISA for detection of cGMP in the produced GC-C-expressing cell line; type: cell-based; details: 100 nM guanylin; cell lysate from GC-C-expressing cell line; FIG. 1
T1 construct: expressed in transfected cells; CMV promoter
Method: A competitive ELISA for detection of cGMP was used to characterize native GC-C function in the produced GC-C-expressing cell line. Cells expressing GC-C were maintained under standard cell culture conditions in DMEM supplemented with 10% fetal bovine serum, glutamine and HEPES and grown in T175 cm flasks. For the ELISA, the cells were plated into coated 96-well plates (poly-D-lysine).
(§1) Cells were washed twice with serum-free medium and incubated with 1 mM IBMX for 30 minutes. Desired activators (i.e., guanylin, 0.001-40 μM) were then added to the cells and incubated for 30-40 minutes. Supernatant was removed, and the cells were washed with TBS buffer. […]. This was followed by lysis with 0.1N HCl and a freeze/thaw cycle at −20° C./room temperature. Defrosted lysates (samples were spun in Eppendorf tubes at 10,000 rpm) were centrifuged to pellet cell debris. The cleared supernatant lysate was then transferred to ELISA plates.
All of the following steps were performed at room temperature, unless otherwise indicated. ELISA plates were coated with anti-IgG antibodies in coating buffer (Na-carbonate/bi-carbonate buffer, 0.1 M final, pH 9.6) overnight at 4° C. […] The absorbance was then read at 405 nm on a SAFIRE^2™ plate reader (Tecan).
Maximum absorbance was seen when no cell lysate was used in the ELISA (Control).

[2] = target: T1, human GC-C; assay: Direct Cyclic GMP Enzyme Immunoassay Kit, cGMP in the produced GC-C-expressing cell line (guanylin dose-response and comparison with parental cells); type: cell-based
Method: Populations of cells were tested using functional criteria. The Direct Cyclic GMP Enzyme Immunoassay Kit (Cat. 900-014; AssayDesigns, Inc.) was used according to manufacturer's instructions: (http://www.assaydesigns.com/objects/catalog//product/extras/900-014.pdf). Cells were tested at 4 different densities in 96- or 384-well plates and responses were analyzed. The following conditions were used for the GC-C-expressing cell lines of the invention:
as §1
The cGMP level in the produced GC-C-expressing cell line treated with 100 nM guanylin was also compared to that of parental cell line control samples not expressing GC-C (not shown) using the Direct Cyclic GMP Enzyme Immunoassay Kit (Cat. 900-014; AssayDesigns, Inc.).
For guanylin dose-response experiments, cells of the produced GC-C-expressing cell line, plated at densities of 20,000, 40,000, 60,000, 80,000, 120,000 and 160,000 cells/well in a 96-well plate, were challenged with increasing concentration of guanylin for 30 minutes (see FIG. 2). […] 140(4):1800-1806 (1999)), indicating the potency of the clone.

[3] = tested on: other cell lines; details: low concentrations of guanylin, Forte et al., Endocr. 140(4):1800-1806 (1999); cited from earlier work
[4] = target: human guanylate cyclase-C (GC-C) (human) (UniProt P25092); assay: cell-based or functional assay
Sequence of human guanylate cyclase-C (GC-C) (human) (P25092 24-1073 F281L limits assumed): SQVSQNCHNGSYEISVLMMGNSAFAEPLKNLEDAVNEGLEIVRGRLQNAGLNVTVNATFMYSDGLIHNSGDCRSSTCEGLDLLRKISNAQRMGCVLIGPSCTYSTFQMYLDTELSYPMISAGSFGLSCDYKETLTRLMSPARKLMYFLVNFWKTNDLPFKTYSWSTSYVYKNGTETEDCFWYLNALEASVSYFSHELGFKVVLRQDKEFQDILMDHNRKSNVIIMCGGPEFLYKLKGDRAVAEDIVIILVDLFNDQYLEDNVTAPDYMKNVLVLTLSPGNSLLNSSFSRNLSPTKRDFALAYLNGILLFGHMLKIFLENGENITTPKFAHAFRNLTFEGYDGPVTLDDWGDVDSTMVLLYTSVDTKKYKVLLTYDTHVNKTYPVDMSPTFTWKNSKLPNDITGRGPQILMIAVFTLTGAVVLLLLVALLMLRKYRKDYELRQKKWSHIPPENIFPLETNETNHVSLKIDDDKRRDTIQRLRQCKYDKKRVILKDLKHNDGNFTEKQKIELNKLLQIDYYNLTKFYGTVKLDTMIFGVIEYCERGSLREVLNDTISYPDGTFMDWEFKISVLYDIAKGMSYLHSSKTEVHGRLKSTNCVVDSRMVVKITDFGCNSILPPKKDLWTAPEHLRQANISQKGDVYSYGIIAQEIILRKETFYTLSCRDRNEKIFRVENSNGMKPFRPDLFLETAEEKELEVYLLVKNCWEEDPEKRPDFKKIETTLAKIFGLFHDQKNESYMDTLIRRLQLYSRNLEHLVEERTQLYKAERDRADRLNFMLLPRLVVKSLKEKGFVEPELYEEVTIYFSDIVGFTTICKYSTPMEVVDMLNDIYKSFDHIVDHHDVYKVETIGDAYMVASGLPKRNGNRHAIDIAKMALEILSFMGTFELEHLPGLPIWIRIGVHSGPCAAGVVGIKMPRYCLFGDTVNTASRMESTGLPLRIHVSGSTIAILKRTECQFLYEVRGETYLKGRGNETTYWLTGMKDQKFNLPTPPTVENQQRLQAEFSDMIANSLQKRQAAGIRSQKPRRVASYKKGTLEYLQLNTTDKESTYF

T1 sequence (P25092 24-1073 F281L): as the sequence (P25092 24-1073 F281L limits assumed) above

CC[C@H](C)[C@@H]1NC(=O)[C@H](CCC(=O)O)NC(=O)[C@@H](NC(=O)[C@@H](NC(=O)CNC(=O)[C@@H]2CCCN2)[C@@H](C)O)CSSC[C@@H]2NC(=O)[C@H](C)NC(=O)[C@H](C)NC(=O)[C@H](Cc3ccc(O)cc3)NC(=O)[C@H](C)NC(=O)[C@H](CSSC[C@@H](C(=O)O)NC(=O)CNC(=O)[C@H]([C@@H](C)O)NC2=O)NC1=O [guanylin] (H-PGTCEICAYAACTGC-OH; disulfide 4-12, 7-15 (inferred); N-terminus and C-terminus assumed)
absorbance (corresponding to cGMP levels) vs control without cell lysate [1]: Reduction in absorbance | absorbance (corresponding to cGMP levels) vs parental cells not expressing GC-C ([2]; 100 nM guanylin, compared with parental cells treated and untreated with guanylin): greater reduction in absorbance | EC50 ([2]; produced GC-C-expressing 293T cell line, guanylin 30 minutes, non-linear regression, GraphPad Prism 5.0): ~1.1 nM | level of cGMP ([2]; produced GC-C-expressing cell line treated with low concentrations of guanylin): 6 pmol/mL | level of cGMP previously reported [3]: 3.5 pmol/mL

guanylin (peptide)
EC50 of guanylin dose-response, cellular cGMP level (absorbance, Direct Cyclic GMP Enzyme Immunoassay Kit) [4]: 1.1 nM | level of cGMP in the GC-C-expressing cell line treated with low concentrations of guanylin [4]: 6 pmol/mL
